Results on two compounds are retold here after US20100240656A1, “COMPOUNDS AS HSP90 INHIBITORS” (ORYZON GENOMICS, S.A., priority 2007, published 2010).

“Also recorded” adds a separate entry of the source.

The test system of experiment [1] is Hsp90 client proteins (c-Raf-1, Cdk4, Her2) and co-chaperone Hsp70. Description: Determination of biomarkers in cell cultures (western blot, MCF7 cells). The experiment is classed as cell-based, human. To be noted: 33 and 100 μM, 72 hours. An excerpt: FIG. 1 is a western blot analysis to determine the protein levels of Hsp90 client proteins (c-Raf-1, Cdk4, and Her2) and the co-chaperone Hsp70 upon treatment with increasing concentrations of example 6 (compound of the invention) and 17AAG (which is known in the state of the art as a degradation promoter).
The aim of this study was to determine the influence of example 6 on the levels of pharmacodynamic biomarkers such as c-Raf-1, Cdk4, Her2 and Hsp70, indicative that the effect observed in cell viability is mediated through inhibition of Hsp90. GADPH was used as a control of protein loading.
MCF7 cells (1×10^6) were seeded on tissue culture dishes and allowed to grow overnight at 37° C. with 5% CO2. Cells were treated with example 6 compound (at 33 and 100 μM) and the known Hsp90 inhibitor 17AAG (at […]). 0.5% DMSO was used as control. […] Protein concentration was measured by the Bradford method (Bio-Rad Protein Assay, Bio-Rad). […] Following appropriate secondary antibody incubation for 1 h at room temperature (anti-rabbit IgG-HRP, NA934V, Amersham Biosciences, diluted 1:8000; anti-mouse IgG-HRP, sc-2061, Santa Cruz Biotechnology, diluted 1:2500 and, anti-goat IgG-HRP, sc-31154, Santa Cruz Biotechnology, diluted 1:3500), the specific protein signals were detected using the ECL-Plus Western blotting detection system (GE Healthcare) according to the manufacturer's instructions. […]

The next experiment has as its target T1, Hsp90α (Homo sapiens, UniProt P07900).
T1 construct: purchased Stressgen Bioreagents SPP-776
In words: Human Hsp90α fluorescence polarization competition assay with Example 37 tracer. To be noted: displacement of 50 nM example 37 tracer, 125 nM Hsp90α, 1 h 30 min, 20° C.; read-out: Relative binding affinity values (IC50) obtained from FP measurements. An excerpt: The aim of this study was to determine the binding ability of compounds of the invention to the N-terminal ATP binding site of Hsp90. For that purpose competition assays with fluorescently labeled Hsp90 binders were used (compounds of examples 37 and 41).
Compounds of examples 37 and 41 are structurally based on 8-(6-Iodo-benzo[1,3]dioxol-5-ylsulfanyl)-9-(3-isopropylamino-propyl)-9H-purin-6-ylamine, a known binder of the N-terminal ATP binding site of Hsp90 which has the ability of inhibiting the Hsp90 function (cf. Chiosis G. et al. “Identification of Potent Water Soluble Purine-Scaffold Inhibitors of the Heat Shock Protein 90”, J. Med. Chem., 2006, vol. 49, no. 1, p. 381). Compounds 37 and 41 keep the essential structural features of the known binder (which means that said compounds are able to bind to the ATP binding site) and incorporate a fluorescent probe which allows the detection of the binding by fluorescence polarization.
When the binders of examples 37 and 41 are used in the competition assay, in a first step said binders are allowed to interact with the N-terminal ATP binding site of Hsp90. Then the compounds of the invention are added and it is determined if they are able to bind to the N-terminal ATP binding site (which will imply that the binders of examples 37 and 41 have been replaced from the N-terminal ATP binding site). If after performing the assay, the binding between the tested compound of the invention and the Hsp90 is observed, this will be indicative that the compound of the invention has been bound to the ATP binding site of Hsp90 and, therefore, can inhibit the Hsp90.
Once compounds of examples 37 and 41 were synthesized as reported above, they were dissolved at 238 μM and 1 mM in DMSO respectively (Sigma-Aldrich, cat. No. 154938). Hsp90α was purchased from Stressgen Bioreagents (cat. No. SPP-776; Victoria, Canada). The assay buffer contained 100 mM Tris·HCl, pH 7.4, 20 mM KCl, 6 mM MgCl2. Before each use 5 μg/mL bovine serum albumin (BSA, Pierce, Rockford (Ill.), cat No. 23209), 0.25 mM TCEP (Sigma, cat No. 64706) and 0.01% NP40 (Nonidet P40 Substitute, Fluka, cat No. 74385) were freshly added (cf. Howes et al., “A fluorescence polarization assay for inhibitors of Hsp90”, Analytical Biochemistry, 2006, vol. 350, p. 202-213; Kim et al., “Development of a fluorescence polarization assay for the molecular chaperone Hsp90”, J. Biomol. Screen., 2004, vol. 9 (5)).
Fluorescence polarization measurements were performed on an Infinite F200 (Tecan, Austria). Measurements were taken in black 96-well microplates (Corning Costar No. 3650) in which both the excitation and the emission occurred from the top of the wells. In the Infinite F200, a xenon arc lamp provides excitation light that passes through a 485 nm (20-nm bandwidth) excitation filter and then a polarizer filter. A beam splitter filter directs the polarized excitation light into the well, and emitted fluorescence transmits back through the same beam-splitter filter, through a polarizer filter, and then through a 535 nm (25-nm bandwidth) emission filter for detection (Kim et al., supra). The read time per well was 20 μs, and the number of reads per well was 25.
Compounds were assayed over a three-fold dilution series in a 96-well plate format to determine IC50 values. The serial dilution was performed in a separate 96-well plate (Thermowell 96 well PCR plate, Non-Treated Polypropylene, Corning Costar No. 6551) at 50 times final assay concentration in DMSO. (Howes et al, supra). 2 μl of compound was transferred to a black 96-well plate (Corning Costar No. 3650) and 98 μL of reaction solution (100 mM Tris·HCl, pH 7.4, 20 mM KCl, 6 mM MgCl2, 5 μg/mL bovine serum albumin (BSA), 0.25 mM TCEP, 0.01% NP40, 50 nM the compound of example 37, 125 nM Hsp90α) was added per well. The plate was allowed to equilibrate for 1 h 30 min on a slow moving shaker at 20° C. in the dark. […]

On to `NCCCCCn1c(Sc2cc3c(cc2I)OCO3)nc(C(N)=O)c1N` [Example 6, 5-amino-1-(5-amino-pentyl)-2-(6-iodo-benzo[1,3]dioxol-5-ylsulfanyl)-1H-imidazole-4-carboxamide], for which the “protein levels of Hsp90 client proteins (c-Raf-1, Cdk4, Her2) and co-chaperone Hsp70 by western blot” value in experiment [1] is “acts in a similar way that 17AAG; also recorded: there is a specific interaction with hsp90 target in cells”. The IC50 (usually the midpoint of a concentration-inhibition curve) at Hsp90α is 880 nM.

Consider `CCCCn1c(Sc2cc3c(cc2I)OCO3)nc(C(N)=O)c1N` [Example 10, 5-amino-1-butyl-2-(6-iodo-benzo[1,3]dioxol-5-ylsulfanyl)-1H-imidazole-4-carboxamide], for which the IC50 on Hsp90α came to 1700 nM.
